Assays:
[1] = system: rats suffering from puromycin-caused nephropathy; assay: 24-hour urine protein in rats suffering from puromycin-caused nephropathy; assay type: in vivo, Sprague-Dawley rats; details: 10 mg/kg verbascoside intragastrically every day
Source text: (§1) The animal experiment was approved by Animal Ethics Committee of Peking University First Hospital, with Resolution No.: J201644. 51 male Sprague-Dawley rats (6 weeks) of the same batch were purchased from Beijing Charles River Company, raised at the animal center of Peking University First Hospital (clean grade), and randomly divided into 3 groups after 3 days of acclimation:
1. normal control group (CON)
2. puromycin disease group (PAN)
3. puromycin+verbascoside-treated group (PAN+ACT)
(§2) In the above, groups 2 and 3 were intraperitoneally subjected to single injection of puromycin (Sigma P7130) by 15 mg/100 g at day 0 of the experiment. The normal control group was intraperitoneally injected with the same dosage of physiological saline. Group 3 was intragastrically treated with 10 mg/kg verbascoside every day, and groups 1 and 2 were intragastrically treated with the same dosage of injection water every day. In the experiment process, 24-hour urine of the rats was collected respectively before the administration (Day 0), and at the 5th day, the 10th day, the 15th day, and the 20th day (Day 5, Day 10, Day 15, and Day 20) after the administration, for quantitative measurement of urine protein (Hitachi 7170A full-automatic biochemical analyzer). The rats were sacrificed at the 20th day (Day 20) after the injection of puromycin, and kidney specimens were collected, which were subsequently used for extracting protein, extracting RNA, taking paraffin-embedded and frozen specimens, and separating glomeruli.
In order to determine the therapeutic effect of verbascoside on the rats suffering from puromycin-caused nephropathy, the rats were divided into 3 groups, normal control group (CON), disease group (PAN), and verbascoside group (PAN+ACT). 24-hour urine of the rats in each group were sampled every 5 days. The effect of verbascoside for treating the nephropathic proteinuria level was reflected by collecting and detecting blood and urine samples of the rats in each group.

mouse podocyte line MPC5 [2] = assay: Cell migration (scratch) experiment in puromycin-treated podocytes; assay type: cell-based; details: 24 hours after scratch
Procedure: (§3) A mouse podocyte line MPC5 was offered by professor Peter Mundel from Mount Sinai Medical School, New York, USA. After recovery, podocytes were placed in a 33° C., 5% CO2 cell incubator to be cultured for proliferation thereof. When a fusion degree thereof reached about 80%, the podocytes were transferred into a 37° C. incubator to be differentiated for 10-14 days such that the podocytes were differentiated to be mature. After the podocytes were differentiated to be mature, the podocytes were inoculated in a 6-well plate, and after the podocytes adhered to the wall, puromycin and verbascoside were added into the plate to stimulate the podocytes for 24 hours, and then proteins or RNAs were collected for later detection.
The differentiated podocytes were inoculated on a 6-well plate coated with rat type I collagen, and when the fusion degree thereof reached 60%, a line was scratched on a baseboard using a 200 μL sterile high-pressure gun tip, then the plate was flushed clean using PBS and a clean culture medium was used in replacement, which time was served as the 0th hour, and a photo was taken by an inverted microscope, then a corresponding drug was added for intervention, then after 24 hours, a photo was taken again, and finally analysis was made using ImageJ software. The final result was expressed by percentage of coverage.

podocyte foot process = assay: Podocyte foot process under electron microscope in puromycin-induced nephropathic rat models; assay type: in vivo, Sprague-Dawley rats; details: 20th day; 10 mg/kg intragastrically every day
Procedure: as §1
as §2, with “The rats were sacrificed at the 20th day (Day 20) after the injection of puromycin, and kidney specimens were collected, which were subsequently used for extracting protein, extracting RNA, taking paraffin-embedded and frozen specimens, and separating glomeruli.” left out

synaptopodin = assay: Synaptopodin immunofluorescence of kidney tissue in puromycin-induced nephropathic rats; assay type: in vivo, Sprague-Dawley rats; details: 20th day, 10 mg/kg intragastrically every day
Procedure: as §1
as §2, with “The rats were sacrificed at the 20th day (Day 20) after the injection of puromycin, and kidney specimens were collected, which were subsequently used for extracting protein, extracting RNA, taking paraffin-embedded and frozen specimens, and separating glomeruli.” left out
(§4) The kidney tissue was sliced. […] The mixture was rinsed with deionized water, mounted with 50% buffered glycerol, edge sealed with nail polish, observed under a fluorescence microscope, and photographed. […]

nephrin [3] = assay: Nephrin protein expression in puromycin-induced podocyte damage (western blot); assay type: cell-based, mouse; details: 24 hours
Procedure: as §3, with “detection. […]” for “detection.”

mouse podocyte line MPC5 [4] = assay: Phalloidin staining of podocyte cytoskeletal microfilamentous proteins; assay type: cell-based; details: puromycin-treated podocytes
Procedure: as §3
as §4, with “sliced. First, slices were subjected to xylene and gradient alcohol deparaffinization, followed by antigen retrieval, and then punched with 0.3% Triton-PBS.” for “sliced.”

mouse podocyte line MPC5 [5] = assay: Detection of podocyte activity with MTS in puromycin-induced podocyte damage; assay type: cell-based; details: 24 h
Procedure: as §3
After subculturing and counting the podocytes, the podocytes were uniformly inoculated into a 96-well plate at a density of 1.0×10^5/mL, after the cells adhered to the wall, puromycin and verbascoside were respectively added to treat the podocytes, then after 24 h, the culture medium was discarded, a culture medium containing MTS (Promega G1112) was added with the MTS content of 10 μl MTS per 100 μl of the culture medium, the 96-well plate added with the MTS was placed in a light-tight environment at 37° C. for 4 h and then taken out, and an OD value was measured at 490 nm wavelength using the ELIASA.

nephrin [6] = assay: Nephrin gene and protein expression in glomeruli of puromycin-induced nephropathic rats (western, real-time quantitative PCR); assay type: in vivo, Sprague-Dawley rats; details: 20th day, 10 mg/kg intragastrically every day
Procedure: as §1
as §2, with “The rats were sacrificed at the 20th day (Day 20) after the injection of puromycin, and kidney specimens were collected, which were subsequently used for extracting protein, extracting RNA, taking paraffin-embedded and frozen specimens, and separating glomeruli.” left out

Substance: Verbascoside
- 24-hour urine protein vs puromycin group ([1]; 5th day, puromycin 15 mg/100 g i.p.): not significantly different
- 24-hour urine protein vs disease group ([1]; 10th day, puromycin 15 mg/100 g i.p.): decreased significantly
- 24-hour proteinuria abnormality ([1]; 15th day): remarkably relieved
- 24-hour proteinuria abnormality ([1]; 20th day): remarkably relieved
- podocyte migration capability (percentage of coverage) (mouse podocyte line MPC5 [2]): restored
- podocyte foot process fusion (electron microscope) (podocyte foot process): recovered apparently
- synaptopodin fluorescence intensity (synaptopodin): recovered
- nephrin expression (protein) (nephrin [3]): improved
- arrangement of the cytoskeletons (phalloidin) (mouse podocyte line MPC5 [4]): restored
- podocyte viability (MTS, OD 490 nm) (mouse podocyte line MPC5 [5]): recovered
- nephrin gene expression level (real-time quantitative PCR) (nephrin [6]): increased
- nephrin protein expression level (western) (nephrin [6]): increased

Source: patent publication US11471472B2, “Use of verbascoside in preparation of drug for preventing or treating glomerular podocyte injured renal disease” (SICHUAN MEDCO PHARMACEUTICAL STOCK CO., LTD., priority 2017, dated 2022)
